Data on five compounds can be found in patent publication US10030021B2, “Spirocyclic morphinans and use thereof” (Purdue Pharma L.P., priority 2014, dated 2018).

Experiment [1] addresses T1, human kappa opioid receptor (κ) (Homo sapiens, UniProt P41145).
T1 construct: expressed in transfected cells; host or cells: HEK-293
Description: κ-opioid receptor radioligand ([3H]-U69,593) dose displacement binding assay. As to the method: Membranes from recombinant HEK-293 cells expressing the human kappa opioid receptor (κ) (cloned in house) were prepared by lysing cells in ice cold hypotonic buffer (2.5 mM MgCl2, 50 mM HEPES, pH 7.4) (10 mL/10 cm dish) followed by homogenization with a tissue grinder/Teflon pestle. Membranes were collected by centrifugation at 30,000×g for 15 min at 4° C. and pellets were resuspended in hypotonic buffer to a final concentration of 1-3 mg/mL. Protein concentrations were determined using the BioRad protein assay reagent with bovine serum albumen as standard. Aliquots of κ receptor membranes were stored at −80° C.
Radioligand dose displacement assays used 0.4 nM [^3H]-U69,593 (GE Healthcare, Piscataway, N.J.; 40 Ci/mmole) with 15 μg membrane protein (recombinant κ opioid receptor expressed in HEK 293 cells; in-house prep) in a final volume of 200 μl binding buffer (5% DMSO, 50 mM Trizma base, pH 7.4). Non-specific binding was determined in the presence of 10 μM unlabeled naloxone or U69,593. All reactions were performed in 96-well polypropylene plates for 1 hour at a temperature of about 25° C. […] Fifty μl/well scintillation cocktail (Perkin Elmer, Shelton, Conn.) was added and plates were counted in a Packard Top-Count for 1 min/well.

The target in experiment [2] is T2, κ opioid receptor (Homo sapiens, UniProt P41145).
T2 construct: expressed in transfected cells; host or cells: HEK-293 (inferred from the in-house κ membrane preparation)
The experiment in a line: κ-opioid receptor [35S]GTPγS functional assay. It is filed as biochemical. How it is done: Functional [^35S]GTPγS binding assays were conducted as follows. κ opioid receptor membrane solution was prepared by sequentially adding final concentrations of 0.026 μg/μl κ membrane protein (in-house), 10 μg/mL saponin, 3 μM GDP and 0.20 nM [^35S]GTPγS to binding buffer (100 mM NaCl, 10 mM MgCl2, 20 mM HEPES, pH 7.4) on ice. The prepared membrane solution (190 μl/well) was transferred to 96-shallow well polypropylene plates containing 10 μl of 20× concentrated stock solutions of agonist prepared in DMSO. Plates were incubated for 30 min at a temperature of about 25° C. with shaking. Reactions were terminated by rapid filtration onto 96-well Unifilter GF/B filter plates (Perkin Elmer, Shelton, Conn.) using a 96-well tissue harvester (Packard) and followed by three filtration washes with 200 μl ice-cold binding buffer (10 mM NaH2PO4, 10 mM Na2HPO4, pH 7.4). Filter plates were subsequently dried at 50° C. for 2-3 hours. Fifty μ1/well scintillation cocktail (Perkin Elmer, Shelton, Conn.) was added and plates were counted in a Packard Top-Count for 1 min/well.
κ GTP EC50 is the concentration of a compound providing 50% of the maximal response for the compound at a κ receptor.
κ GTP Emax (%) is the maximal effect elicited by a compound relative to the effect elicited by U69,593.
A general note: Binding of GTPγS marks nucleotide exchange on a G protein.

Experiment [3] deals with T3, μ-opioid receptor (Homo sapiens, UniProt P35372).
T3 construct: purchased Perkin Elmer, Shelton, Conn
The experiment in a line: μ-opioid receptor [35S]GTPγS functional assay. It is filed as biochemical. To be noted: for Emax: maximal effect relative to DAMGO. How it is done: [^35S]GTPγS functional assays were conducted using freshly thawed μ-receptor membranes (Perkin Elmer, Shelton, Conn.). Assay reactions were prepared by sequentially adding the following reagents to binding buffer (100 mM NaCl, 10 mM MgCl2, 20 mM HEPES, pH 7.4) on ice (final concentrations indicated): membrane protein (0.026 mg/mL), saponin ([…]), GDP ([…]) and [^35S]GTPγS (0.20 nM; Perkin Elmer, Shelton, Conn.). The prepared membrane solution (190 μl/well) was transferred to 96-shallow well polypropylene plates containing 10 μl of 20× concentrated stock solutions of the agonist [D-Ala^2, N-methyl-Phe^4 Gly-ol^5]-enkephalin (DAMGO) prepared in dimethyl sulfoxide (DMSO). Plates were incubated for 30 min at about 25° C. with shaking. Reactions were terminated by rapid filtration onto 96-well Unifilter GF/B filter plates (Perkin Elmer, Shelton, Conn.) using a 96-well tissue harvester (Perkin Elmer, Shelton, Conn.) followed by three filtration washes with 200 μl of ice-cold wash buffer (10 mM NaH2PO4, 10 mM Na2HPO4, pH 7.4). Filter plates were subsequently dried at 50° C. for 2-3 hours. BetaScint scintillation cocktail (Perkin Elmer, Shelton, Conn.) was added (50 μl/well) and plates were counted using a Packard Top-Count for 1 min/well. Data were analyzed using the sigmoidal dose-response curve fitting functions in GraphPad PRISM v. 3.0, or an in-house function for non-linear, sigmoidal dose-response curve-fitting.
μ GTP EC50 is the concentration of a compound providing 50% of the maximal response for the compound at a μ-opioid receptor.
μ GTP Emax (%) is the maximal effect elicited by a compound relative to the effect elicited by DAMGO, a standard agonist. Generally, the μ GTP Emax (%) value measures the efficacy of a compound to treat or prevent pain or other Conditions.

T3 sequence (P35372 whole entry, species assumed): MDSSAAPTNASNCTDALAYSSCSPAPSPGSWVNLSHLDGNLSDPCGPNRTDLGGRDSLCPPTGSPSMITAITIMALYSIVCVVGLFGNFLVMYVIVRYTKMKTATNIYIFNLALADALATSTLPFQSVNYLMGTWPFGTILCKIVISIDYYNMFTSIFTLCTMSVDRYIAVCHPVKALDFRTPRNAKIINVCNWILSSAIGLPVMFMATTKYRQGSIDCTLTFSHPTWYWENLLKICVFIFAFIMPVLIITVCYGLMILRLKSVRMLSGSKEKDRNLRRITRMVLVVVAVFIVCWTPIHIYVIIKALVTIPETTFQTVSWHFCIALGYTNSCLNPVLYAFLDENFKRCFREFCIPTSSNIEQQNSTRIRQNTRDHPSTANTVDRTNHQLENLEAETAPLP
T2 sequence (P41145 whole entry): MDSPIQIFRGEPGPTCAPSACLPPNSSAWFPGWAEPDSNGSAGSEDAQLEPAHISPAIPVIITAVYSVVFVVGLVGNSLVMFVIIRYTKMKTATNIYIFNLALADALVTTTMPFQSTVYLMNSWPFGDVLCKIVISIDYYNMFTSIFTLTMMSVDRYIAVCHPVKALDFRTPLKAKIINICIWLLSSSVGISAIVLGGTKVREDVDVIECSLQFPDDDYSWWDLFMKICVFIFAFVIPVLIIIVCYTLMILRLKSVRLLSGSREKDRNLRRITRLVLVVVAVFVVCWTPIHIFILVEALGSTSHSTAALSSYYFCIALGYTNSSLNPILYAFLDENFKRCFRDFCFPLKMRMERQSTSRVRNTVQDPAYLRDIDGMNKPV
T1 sequence (P41145 whole entry): as above

As a reminder, the Ki is the equilibrium dissociation constant of an inhibitor or competing ligand from its target. A word on the EC50: it is the concentration that produces a half-maximal response. Low values mean an effect from little substance, high ones a need for much substance. As usually defined, the Emax is the size of the effect at its maximum, as opposed to the concentration needed. In experiment [1], `CCN1C(=O)N(CC)[C@]2(CC[C@H]3[C@H]4Cc5ccc(O)cc5[C@@]3(CCN4C)C2)C1=O` [Compound 21, (4S,4b′S,8a′R,9′R)-1,3-diethyl-3′-hydroxy-11′-methyl-8′,8a′,9′,10′-tetrahydro-5′H,7′H-spiro[imidazolidine-4,6′-[9,4b](epiminoethano)phenanthrene]-2,5-dione] yielded a Ki of 10.5 ± 1.11 nM. In addition, the EC50 in experiment [2] was determined as 221 ± 22.6 nM; in experiment [3], 54.7 ± 7.76 nM. Moreover, the Emax turned out to be 56.7 ± 3.66% in experiment [2] (maximal effect relative to U69,593) and 24.7 ± 2.46% in experiment [3].

In experiment [3], `CN(C)CCCN1CC[C@]23C[C@]4(CC[C@@]2(O)[C@H]1Cc1ccc(O)cc13)NC(=O)NC4=O` [Compound 30, (4S,4b′R,8a′S,9′R)-11′-(3-(dimethylamino)propyl)-3′,8a′-dihydroxy-8′,8a′,9′,10′-tetrahydro-5′H,7′H-spiro[imidazolidine-4,6′-[9,4b](epiminoethano)phenanthrene]-2,5-dione] gave an EC50 of over 20000 nM and an Emax of 1%.

In experiment [3], `CCN1C(=O)N(CC)[C@]2(CC[C@@]3(O)[C@H]4Cc5ccc(C#N)cc5[C@@]3(CCN4C)C2)C1=O` [Compound 32, (4S,4b′R,8a′S,9′R)-1,3-diethyl-8a′-hydroxy-11′-methyl-2,5-dioxo-8′,8a′,9′,10′-tetrahydro-5′H,7′H-spiro[imidazolidine-4,6′-[9,4b](epiminoethano)phenanthrene]-3′-carbonitrile] registered an EC50 of over 20000 nM and an Emax of 16.3 ± 1.76%.

For `CCN1C(=O)N(CC)[C@]2(CC[C@@]3(O)[C@H]4Cc5ccc(C(N)=O)cc5[C@@]3(CCN4C)C2)C1=O` [Compound 33, (4S,4b′R,8a′S,9′R)-1,3-diethyl-8a′-hydroxy-11′-methyl-2,5-dioxo-8′,8a′,9′,10′-tetrahydro-5′H,7′H-spiro[imidazolidine-4,6′-[9,4b](epiminoethano)phenanthrene]-3′-carboxamide], in experiment [3], a half-maximal effect (EC50) was put at 974 ± 117 nM and the Emax stood at 39.3 ± 1.78%.

In experiment [3], `CCN1C(=O)N(CC)[C@]2(CC[C@@]3(O)[C@H]4Cc5ccc(/C(N)=N\O)cc5[C@@]3(CCN4C)C2)C1=O` [Compound 34, (4S,4b′R,8a′S,9′R,E)-1,3-diethyl-N′,8a′-dihydroxy-11′-methyl-2,5-dioxo-8′,8a′,9′,10′-tetrahydro-5′H,7′H-spiro[imidazolidine-4,6′-[9,4b](epiminoethano)phenanthrene]-3′-carboximidamide] came in with an EC50 of 17200 ± 1200 nM and an Emax of 29.7 ± 1.18%.
